Results reported in PubChem BioAssay (NCI).
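Cells were grown in 96-well plates and exposed to each compound for 48 hours at five concentrations; endpoints were interpolated linearly between bracketing concentrations, or set to the highest concentration if not reached. The concentration for 50% growth inhibition is given as GI50. TGI: total growth inhibition.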

Assays:
Assay in all cases: NCI-60 cell line screen, 48 h
786-0 renal = system: 786-0 renal
A549 NSCLC = system: A549 NSCLC
ACHN renal = system: ACHN renal
BT-549 breast = system: BT-549 breast
CAKI-1 renal = system: CAKI-1 renal
COLO 205 colon = system: COLO 205 colon
DU-145 prostate = system: DU-145 prostate
EKVX NSCLC = system: EKVX NSCLC
HCC-2998 colon = system: HCC-2998 colon
HCT-15 colon = system: HCT-15 colon
HL-60(TB) leukemia = system: HL-60(TB) leukemia
HOP-62 NSCLC = system: HOP-62 NSCLC
HOP-92 NSCLC = system: HOP-92 NSCLC
HT29 colon = system: HT29 colon
K-562 leukemia = system: K-562 leukemia
KM12 colon = system: KM12 colon
LOX IMVI melanoma = system: LOX IMVI melanoma
M14 melanoma = system: M14 melanoma
MDA-MB-231 breast = system: MDA-MB-231 breast
MDA-MB-435 = system: MDA-MB-435
MOLT-4 leukemia = system: MOLT-4 leukemia
NCI-H226 lung = system: NCI-H226 lung
NCI-H23 lung = system: NCI-H23 lung
NCI-H460 lung = system: NCI-H460 lung
NCI-H522 lung = system: NCI-H522 lung
NCI/ADR-RES ovarian = system: NCI/ADR-RES ovarian
OVCAR-3 ovarian = system: OVCAR-3 ovarian
OVCAR-4 ovarian = system: OVCAR-4 ovarian
OVCAR-5 ovarian = system: OVCAR-5 ovarian
OVCAR-8 ovarian = system: OVCAR-8 ovarian
PC-3 prostate = system: PC-3 prostate
RPMI-8226 leukemia = system: RPMI-8226 leukemia
RXF 393 renal = system: RXF 393 renal
SF-268 CNS = system: SF-268 CNS
SF-295 CNS = system: SF-295 CNS
SF-539 CNS = system: SF-539 CNS
SK-MEL-2 melanoma = system: SK-MEL-2 melanoma
SK-MEL-28 melanoma = system: SK-MEL-28 melanoma
SK-MEL-5 melanoma = system: SK-MEL-5 melanoma
SK-OV-3 ovarian = system: SK-OV-3 ovarian
SN12C renal = system: SN12C renal
SNB-19 CNS = system: SNB-19 CNS
SNB-75 CNS = system: SNB-75 CNS
SR leukemia = system: SR leukemia
SW-620 colon = system: SW-620 colon
T-47D breast = system: T-47D breast
TK-10 renal = system: TK-10 renal
U251 CNS = system: U251 CNS
UACC-257 melanoma = system: UACC-257 melanoma
UACC-62 melanoma = system: UACC-62 melanoma
UO-31 renal = system: UO-31 renal
A498 renal = system: A498 renal
CCRF-CEM leukemia = system: CCRF-CEM leukemia
HCT-116 colon = system: HCT-116 colon
IGROV1 ovarian = system: IGROV1 ovarian
MALME-3M melanoma = system: MALME-3M melanoma
MCF7 breast = system: MCF7 breast

N/N=C\c1c2ccccc2c(=O)n2c1oc1ccccc12
GI50 (786-0 renal): 26.7 µM
TGI (786-0 renal): 61.7 µM
GI50 (A549 NSCLC): 11.2 µM
TGI (A549 NSCLC): 41.7 µM
GI50 (ACHN renal): 16.3 µM
TGI (ACHN renal): 29.9 µM
GI50 (BT-549 breast): 1.42 µM
TGI (BT-549 breast): 17 µM
GI50 (CAKI-1 renal): 14.2 µM
TGI (CAKI-1 renal): 27.3 µM
GI50 (COLO 205 colon): 18.3 µM
TGI (COLO 205 colon): 34.8 µM
GI50 (DU-145 prostate): 10.6 µM
TGI (DU-145 prostate): 24.9 µM
GI50 (EKVX NSCLC): 10.2 µM
TGI (EKVX NSCLC): 26.2 µM
GI50 (HCC-2998 colon): 16.5 µM
TGI (HCC-2998 colon): 30.5 µM
GI50 (HCT-15 colon): 17.3 µM
TGI (HCT-15 colon): 34.6 µM
GI50 (HL-60(TB) leukemia): 21.1 µM
TGI (HL-60(TB) leukemia): 50.9 µM
GI50 (HOP-62 NSCLC): 16.9 µM
TGI (HOP-62 NSCLC): 32.9 µM
GI50 (HOP-92 NSCLC): 18.9 µM
TGI (HOP-92 NSCLC): 38.7 µM
GI50 (HT29 colon): 22.1 µM
TGI (HT29 colon): > 100 µM
GI50 (K-562 leukemia): 20.8 µM
TGI (K-562 leukemia): 67.6 µM
GI50 (KM12 colon): 14.6 µM
TGI (KM12 colon): 27.7 µM
GI50 (LOX IMVI melanoma): 16.4 µM
TGI (LOX IMVI melanoma): 29.9 µM
GI50 (M14 melanoma): 27.3 µM
TGI (M14 melanoma): 83.6 µM
GI50 (MDA-MB-231 breast): 10.8 µM
TGI (MDA-MB-231 breast): 25 µM
GI50 (MDA-MB-435): 11.3 µM
TGI (MDA-MB-435): 23.8 µM
GI50 (MOLT-4 leukemia): 17.4 µM
TGI (MOLT-4 leukemia): 64.9 µM
GI50 (NCI-H226 lung): 14.6 µM
TGI (NCI-H226 lung): 33.9 µM
GI50 (NCI-H23 lung): 15.7 µM
TGI (NCI-H23 lung): 29.9 µM
GI50 (NCI-H460 lung): 5.47 µM
TGI (NCI-H460 lung): 18.4 µM
GI50 (NCI-H522 lung): 13.6 µM
TGI (NCI-H522 lung): 46 µM
GI50 (NCI/ADR-RES ovarian): 16.9 µM
TGI (NCI/ADR-RES ovarian): 38.1 µM
GI50 (OVCAR-3 ovarian): 14.7 µM
TGI (OVCAR-3 ovarian): 28 µM
GI50 (OVCAR-4 ovarian): 13.1 µM
TGI (OVCAR-4 ovarian): > 100 µM
GI50 (OVCAR-5 ovarian): 18.4 µM
TGI (OVCAR-5 ovarian): 34.8 µM
GI50 (OVCAR-8 ovarian): 19.4 µM
TGI (OVCAR-8 ovarian): 49.4 µM
GI50 (PC-3 prostate): 12.7 µM
TGI (PC-3 prostate): 26.4 µM
GI50 (RPMI-8226 leukemia): 9.18 µM
TGI (RPMI-8226 leukemia): 29 µM
GI50 (RXF 393 renal): 20 µM
TGI (RXF 393 renal): 52.5 µM
GI50 (SF-268 CNS): 15.9 µM
TGI (SF-268 CNS): 30.4 µM
GI50 (SF-295 CNS): 2.61 µM
TGI (SF-295 CNS): 12.3 µM
GI50 (SF-539 CNS): 11.4 µM
TGI (SF-539 CNS): 23.6 µM
GI50 (SK-MEL-2 melanoma): 26.5 µM
TGI (SK-MEL-2 melanoma): > 100 µM
GI50 (SK-MEL-28 melanoma): 18.8 µM
TGI (SK-MEL-28 melanoma): 38.7 µM
GI50 (SK-MEL-5 melanoma): 2.8 µM
TGI (SK-MEL-5 melanoma): 8.34 µM
GI50 (SK-OV-3 ovarian): 17.6 µM
TGI (SK-OV-3 ovarian): 34.3 µM
GI50 (SN12C renal): 14.4 µM
TGI (SN12C renal): 29.7 µM
GI50 (SNB-19 CNS): 17.8 µM
TGI (SNB-19 CNS): 38.7 µM
GI50 (SNB-75 CNS): 11.5 µM
TGI (SNB-75 CNS): 31 µM
GI50 (SR leukemia): 5.61 µM
TGI (SR leukemia): 26 µM
GI50 (SW-620 colon): 15.1 µM
TGI (SW-620 colon): 32.5 µM
GI50 (T-47D breast): 20.5 µM
TGI (T-47D breast): 39.9 µM
GI50 (TK-10 renal): 18.7 µM
TGI (TK-10 renal): 34.3 µM
GI50 (U251 CNS): 14.6 µM
TGI (U251 CNS): 27.7 µM
GI50 (UACC-257 melanoma): 17.3 µM
TGI (UACC-257 melanoma): 39 µM
GI50 (UACC-62 melanoma): 6.82 µM
TGI (UACC-62 melanoma): 19.7 µM
GI50 (UO-31 renal): 25.8 µM
TGI (UO-31 renal): 87.7 µM

COc1cc(Nc2ncccc2C(=O)Nc2nc3ccc(F)cc3s2)cc(OC)c1OC
GI50 (786-0 renal): 5.51 µM
TGI (786-0 renal): > 100 µM
GI50 (A498 renal): 3.45 µM
TGI (A498 renal): > 100 µM
GI50 (A549 NSCLC): 3.11 µM
TGI (A549 NSCLC): > 100 µM
GI50 (ACHN renal): 4.82 µM
TGI (ACHN renal): > 100 µM
GI50 (BT-549 breast): 2.63 µM
TGI (BT-549 breast): > 100 µM
GI50 (CAKI-1 renal): 3.15 µM
TGI (CAKI-1 renal): > 100 µM
GI50 (CCRF-CEM leukemia): 3.26 µM
TGI (CCRF-CEM leukemia): > 100 µM
GI50 (COLO 205 colon): 3.04 µM
TGI (COLO 205 colon): > 100 µM
GI50 (DU-145 prostate): 5.5 µM
TGI (DU-145 prostate): > 100 µM
GI50 (EKVX NSCLC): 2.7 µM
TGI (EKVX NSCLC): > 100 µM
GI50 (HCC-2998 colon): 2.93 µM
TGI (HCC-2998 colon): 6.96 µM
GI50 (HCT-116 colon): 3.49 µM
TGI (HCT-116 colon): > 100 µM
GI50 (HCT-15 colon): 4.38 µM
TGI (HCT-15 colon): > 100 µM
GI50 (HOP-62 NSCLC): 5.78 µM
TGI (HOP-62 NSCLC): > 100 µM
GI50 (HOP-92 NSCLC): 1.48 µM
TGI (HOP-92 NSCLC): 5.91 µM
GI50 (HT29 colon): 5.15 µM
TGI (HT29 colon): > 100 µM
GI50 (IGROV1 ovarian): 1.77 µM
TGI (IGROV1 ovarian): 6.89 µM
GI50 (KM12 colon): 3.79 µM
TGI (KM12 colon): > 100 µM
GI50 (LOX IMVI melanoma): 3.87 µM
TGI (LOX IMVI melanoma): > 100 µM
GI50 (M14 melanoma): 3.08 µM
TGI (M14 melanoma): > 100 µM
GI50 (MALME-3M melanoma): 3.27 µM
TGI (MALME-3M melanoma): > 100 µM
GI50 (MCF7 breast): 3.23 µM
TGI (MCF7 breast): > 100 µM
GI50 (MDA-MB-231 breast): 4.61 µM
TGI (MDA-MB-231 breast): > 100 µM
GI50 (MDA-MB-435): 2.87 µM
TGI (MDA-MB-435): > 100 µM
GI50 (MOLT-4 leukemia): 2.11 µM
TGI (MOLT-4 leukemia): 5.85 µM
GI50 (NCI-H226 lung): 2.95 µM
TGI (NCI-H226 lung): > 100 µM
GI50 (NCI-H23 lung): 2.27 µM
TGI (NCI-H23 lung): > 100 µM
GI50 (NCI-H460 lung): 3.3 µM
TGI (NCI-H460 lung): > 100 µM
GI50 (NCI-H522 lung): 1.54 µM
TGI (NCI-H522 lung): 5.1 µM
GI50 (NCI/ADR-RES ovarian): 2.92 µM
TGI (NCI/ADR-RES ovarian): > 100 µM
GI50 (OVCAR-3 ovarian): 2.77 µM
TGI (OVCAR-3 ovarian): 33 µM
GI50 (OVCAR-4 ovarian): 2.73 µM
TGI (OVCAR-4 ovarian): > 100 µM
GI50 (OVCAR-5 ovarian): 25.6 µM
TGI (OVCAR-5 ovarian): > 100 µM
GI50 (OVCAR-8 ovarian): 3.62 µM
TGI (OVCAR-8 ovarian): > 100 µM
GI50 (PC-3 prostate): 2.73 µM
TGI (PC-3 prostate): > 100 µM
GI50 (SF-268 CNS): 6.56 µM
TGI (SF-268 CNS): > 100 µM
GI50 (SF-295 CNS): 2.55 µM
TGI (SF-295 CNS): > 100 µM
GI50 (SF-539 CNS): 3.84 µM
TGI (SF-539 CNS): > 100 µM
GI50 (SK-MEL-2 melanoma): 2.34 µM
TGI (SK-MEL-2 melanoma): 8.04 µM
GI50 (SK-MEL-28 melanoma): 4.33 µM
TGI (SK-MEL-28 melanoma): > 100 µM
GI50 (SK-MEL-5 melanoma): 1.63 µM
TGI (SK-MEL-5 melanoma): 5.14 µM
GI50 (SK-OV-3 ovarian): 7.4 µM
TGI (SK-OV-3 ovarian): > 100 µM
GI50 (SN12C renal): 4.73 µM
TGI (SN12C renal): > 100 µM
GI50 (SNB-19 CNS): 3.49 µM
TGI (SNB-19 CNS): > 100 µM
GI50 (SNB-75 CNS): 4.48 µM
TGI (SNB-75 CNS): > 100 µM
GI50 (SR leukemia): 2.97 µM
TGI (SR leukemia): > 100 µM
GI50 (T-47D breast): 2.3 µM
TGI (T-47D breast): 7.86 µM
GI50 (U251 CNS): 3.01 µM
TGI (U251 CNS): > 100 µM
GI50 (UO-31 renal): 3.37 µM
TGI (UO-31 renal): > 100 µM
